# From patent publication US4091202A (Zaidan Hojin Biseibutsu Kagaku Kenkyu Kai, priority 1975, dated 1978)
# Where a name gives a salt, the structure may show the parent alone. Read-outs that look alike come from different tables or passages of the source.
# Experiments:
# [1] = test system: Staphylococcus aureus FDA 209P; test: Minimum inhibitory concentration, serial dilution on nutrient agar; format: cell-based; settings: for MIC: FDA209P
# Procedure: (§1) Minimum inhibitory concentrations (mcg/ml) of the new compounds of the invention to various bacteria are estimated according to a standard serial dilution method using nutrient agar as the incubation medium, the incubation being made at 37° C for 41 hours.
# [2] = test system: Klebsiella pneumoniae PCI602; test: as above; format: cell-based; settings: 37° C, 41 hours
# Procedure: as §1
# [3] = test system: Pseudomonas aeruginosa No.12; test: as above; format: cell-based; settings: 37° C, 41 hours
# Procedure: as §1
# [4] = test system: Escherichia coli K-12 W677; test: as above; format: cell-based; settings: 41 hours; for M.I.C.: 37° C; for MIC: K12W677, 37° C
# Procedure: as §1
# Bacillus subtilis PCI219 = test: as above; format: cell-based
# Procedure: as §1
# Proteus vulgaris OX19 = test: as above; format: cell-based; settings: 37° C, 41 hours
# Procedure: as §1
# [5] = test system: Escherichia coli K-12 ML-1410; test: as above; format: cell-based; settings: 41 hours; for M.I.C.: 37° C; for MIC: K12ML1410, 37° C
# Procedure: as §1
# [6] = test system: Escherichia coli K-12 JR66/W677; test: as above; format: cell-based; settings: for M.I.C.: Escherichia coli K-12 JR66/W677, nutrient agar, 37° C, 41 hours; for MIC: Escherichia coli, K12JR66/W677, 41 h
# Procedure: as §1
# [7] = test system: Escherichia coli K-12 MA290 R55; test: as above; format: cell-based; settings: for M.I.C.: Escherichia coli K-12 MA290 R55, nutrient agar, 37° C, 41 hours; for MIC: Escherichia coli, K12MA290R55, 41 h
# Procedure: as §1
# Shigella sonnei JS11746 = test: as above; format: cell-based; settings: 37° C, 41 hours
# Procedure: as §1
# Mycobacterium 607 = test: as above; format: cell-based; settings: 37° C, 41 hours
# Procedure: as §1
# [8] = test system: Pseudomonas aeruginosa GN315; test: as above; format: cell-based
# Procedure: as §1
# [9] = test system: Escherichia coli K-12 ML-1629; test: as above; format: cell-based; settings: 41 hours; for M.I.C.: 37° C; for MIC: K12ML1629, 37° C
# Procedure: as §1
# Escherichia coli K-12 = test: as above; format: cell-based
# Procedure: as §1
# [10] = test system: Escherichia coli K-12 R81; test: as above; format: cell-based; settings: for M.I.C.: Escherichia coli K-12 R81, nutrient agar, 37° C, 41 hours; for MIC: Escherichia coli, K12R81, 41 h
# Procedure: as §1
# [11] = test system: Pseudomonas aeruginosa A3; test: as above; format: cell-based; settings: 37° C, 41 hours
# Procedure: as §1
# mice = settings: for LD50 value: intravenous, mice, six per group, 20% w/v in isotonic sodium chloride solution
# in vivo = settings: mouse, iv
# [12] = test system: Staphylococcus aureus Smith S-424; test: Therapeutic treatment of bacterial infection in mice (ED50); format: in vivo; settings: mice infected i.p. with S. aureus Smith S-424, 27.8 × 10^4 cells, single intramuscular injection immediately after inoculation; for ED50: Staphylococcus aureus, SMITHS424, im
# Procedure: Said inoculum is corresponding to a 860-fold quantity of the LD50 dosage of S.aureus Smith S-424. A solution of the test compound in sterile, isotonic sodium chloride solution was intramuscularly injected into the infected mice once immediately after the inoculation of the bacterium at dosages of 0.1 mg, 0.05 mg, 0.025 mg, 0.0125 mg and 0.0063 mg of the test compound per mouse.
# [13] = test system: some kanamycin-resistant bacteria and Pseudomonas aeruginosa; settings: British Patent No. 1,349,302; cited from earlier work
# Bacillus subtilis = test: Antibacterial potency by cup-assay method; format: cell-based; settings: for antibacterial potency: assuming DKB (free base) has 1000 units/mg
# [14] = Staphylococcus aureus FDA 209P, nutrient agar, 37° C, 41 hours
# [15] = Bacillus subtilis PCI219, nutrient agar, 37° C, 41 hours
# [16] = Pseudomonas aeruginosa GN315, nutrient agar, 37° C, 41 hours
# [17] = Escherichia coli K-12, nutrient agar, 37° C, 41 hours
# [18] = Staphylococcus aureus FDA 209P, nutrient agar, 37° C, 41 hours, read-out: M.I.C.
# [19] = Bacillus subtilis PCI219, nutrient agar, 37° C, 41 hours, read-out: M.I.C.
# [20] = Pseudomonas aeruginosa GN315, nutrient agar, 37° C, 41 hours, read-out: M.I.C.
Compound,"M.I.C. [1, 14] [µg/mL]",M.I.C. [2] [µg/mL],M.I.C. [3] [µg/mL],M.I.C. [4] [µg/mL],M.I.C. (Bacillus subtilis PCI219; [15]) [µg/mL],M.I.C. (Proteus vulgaris OX19) [µg/mL],M.I.C. [5] [µg/mL],M.I.C. [6] [µg/mL],M.I.C. [7] [µg/mL],M.I.C. (Shigella sonnei JS11746) [µg/mL],M.I.C. (Mycobacterium 607) [µg/mL],"M.I.C. [8, 16] [µg/mL]",M.I.C. [9] [µg/mL],M.I.C. (Escherichia coli K-12; [17]) [µg/mL],M.I.C. [10] [µg/mL],M.I.C. [11] [µg/mL],LD50 value (mice) [mg/kg],MIC [2] [µg/mL],MIC [3] [µg/mL],MIC (Proteus vulgaris OX19) [µg/mL],further results
"3',4'-Dideoxykanamycin B-di-N-methylmethane-sulfonic acid and its sodium salt",< 0.2,0.39,1.56,0.78,< 0.2,< 0.2,0.78,50,50,0.78,0.39,> 100,0.78,0.78,0.78,0.78,> 2000,,,,
"3',4'-Dideoxykanamycin B-tri-N-methanesulfonic acid sodium salt [DKB-tri-N-methanesulfonic acid Na salt]",< 0.2,0.39,3.12,0.78,0.2,0.39,0.78,100,100,1.56,0.78,> 100,0.78,0.78,0.78,0.78,> 5000,,,,
"3',4'-Dideoxykanamycin B-mono-N-methanesulfonic acid and its sodium salt [DKB-mono-N-methanesulfonic acid Na salt]",< 0.2,0.39,1.56,0.78,< 0.2,< 0.2,0.78,50,50,0.78,0.39,> 100,0.78,0.78,0.78,0.78,> 1500,,,,
"O=S(=O)(O)C(NC[C@@H]1CC[C@@H](NC(c2ccccc2)S(=O)(=O)O)[C@@H](O[C@H]2[C@H](O)[C@@H](O[C@H]3O[C@H](CO)[C@@H](O)[C@H](NC(c4ccccc4)S(=O)(=O)O)[C@H]3O)[C@H](NC(c3ccccc3)S(=O)(=O)O)C[C@@H]2NC(c2ccccc2)S(=O)(=O)O)O1)c1ccccc1 (stereo partly drawn) [3',4'-Dideoxykanamycin B-penta-N-phenylmethanesulfonic acid sodium salt]",,,,,,,,,,,,,,,,,,0.39,3.12,0.39,"MIC [1, 18]: < 0.2 µg/mL; MIC [4]: 0.78 µg/mL; MIC (Bacillus subtilis PCI219; [19]): 0.2 µg/mL; MIC [5]: 0.78 µg/mL; MIC [6]: 100 µg/mL; MIC [7]: 100 µg/mL; MIC (Shigella sonnei JS11746): 1.56 µg/mL; MIC (Mycobacterium 607): 0.78 µg/mL; MIC [8, 20]: > 100 µg/mL; MIC [9]: 0.39 µg/mL; MIC (Escherichia coli K-12; K12, Escherichia coli K-12, nutrient agar, 37° C, 41 hours, read-out: M.I.C.): 0.78 µg/mL; MIC [10]: 0.78 µg/mL; MIC [11]: 0.78 µg/mL; LD50 (in vivo): > 5000 mg/kg"
"NC[C@@H]1CC[C@@H](N)[C@@H](O[C@H]2[C@H](O)[C@@H](O[C@H]3O[C@H](CO)[C@@H](O)[C@H](N)[C@H]3O)[C@H](N)C[C@@H]2N)O1 [DKB, 3',4'-dideoxykanamycin B, reference compound]",,,,,,,,,,,,,,,,,,0.39,1.56,< 0.2,"ED50 [12]: 1.15 mg/kg; antibacterial activity [13]: high antibacterial activity against some kanamycin-resistant bacteria and Pseudomonas aeruginosa; MIC [1, 18]: < 0.2 µg/mL; MIC [4]: 0.78 µg/mL; MIC (Bacillus subtilis PCI219; [19]): < 0.2 µg/mL; MIC [5]: 0.78 µg/mL; MIC [6]: 50 µg/mL; MIC [7]: 50 µg/mL; MIC (Shigella sonnei JS11746): 0.78 µg/mL; MIC (Mycobacterium 607): 0.39 µg/mL; MIC ([8]; Pseudomonas aeruginosa, GN315, 41 h): > 100 µg/mL; MIC [9]: 0.78 µg/mL; MIC (Escherichia coli K-12; Escherichia coli, K12, 41 h): 0.78 µg/mL; MIC [10]: 0.78 µg/mL; MIC [11]: 0.78 µg/mL; antibacterial potency (assumed reference value) (Bacillus subtilis; assumed value of the standard): 1000 units/mg"
"3',4'-Dideoxykanamycin B-di-N-methanesulfonic acid sodium salt [DKB-di-N-methanesulfonic acid Na salt]",< 0.2,0.39,1.56,0.78,< 0.2,< 0.2,0.78,50,50,0.78,0.39,> 100,0.78,0.78,0.78,0.78,4250,,,,"ED50 value [12]: 1.15 mg/kg; antibacterial potency (Bacillus subtilis): 590 units/mg; acute toxicity relative to that of 3',4'-dideoxykanamycin B itself (mice; intravenous injection into mice, from Table 2): about 1/40"
"O=S(=O)(O)CNC[C@@H]1CC[C@@H](NCS(=O)(=O)O)[C@@H](O[C@H]2[C@H](O)[C@@H](O[C@H]3O[C@H](CO)[C@@H](O)[C@H](NCS(=O)(=O)O)[C@H]3O)[C@H](NCS(=O)(=O)O)C[C@@H]2NCS(=O)(=O)O)O1 [DKB-penta-N-methanesulfonic acid Na salt, 3',4'-dideoxykanamycin B-penta-N-methanesulfonic acid sodium salt]",,,,,,,,,,,,,,,,,,0.39,3.12,0.39,"ED50 [12]: 1.9 mg/kg; MIC ([1]; Staphylococcus aureus, 41 h): < 0.2 µg/mL; MIC (Bacillus subtilis PCI219; Bacillus subtilis, PCI219, 41 h): 0.2 µg/mL; MIC [6]: 100 µg/mL; MIC [7]: 100 µg/mL; MIC (Shigella sonnei JS11746): 1.56 µg/mL; MIC [8, 20]: > 100 µg/mL; MIC [9]: 0.39 µg/mL; LD50 (in vivo): > 5000 mg/kg; antibacterial potency (Bacillus subtilis): 400 units/mg"
